{"source": "patent US20220411380A1", "about": "“ACID ADDITION SALT OF RORy REGULATOR” (JIANGSU HENGRUI MEDICINE CO., LTD., priority 2019, published 2022)", "experiment": "DVS (dynamic vapor sorption) characterization", "type": "physicochemical", "experimental": "DVS refers to dynamic vapor sorption: The measurement was conducted with a Surface Measurement Systems advantage 2 at 25° C., starting from 50% humidity in humidity range of 0%-95% with a step size of 10%. The judging criterion was that the mass change of each gradient dM/dT is less than 0.002 and TMAX is less than 360 min in two circles.", "data": [{"compound": "Cl.NC(=O)C[C@H](c1ccc(S(=O)(=O)CC2CC2)cc1)c1nc2cc(-c3ccccc3OC(F)F)c(Cl)cc2[nH]1", "note": "[Crystalline form β of hydrochloride of compound of formula I]", "values": [{"measurement": "Crystalline form before and after DVS (XRPD comparison)", "setting": "0-95% humidity change", "value": "crystalline form changed during DVS"}, {"measurement": "DVS weight change", "setting": "25° C., 20.0% RH to 80.0% RH", "value": 1.235, "unit": "%"}, {"measurement": "Hygroscopicity", "setting": "DVS, 25° C., 20.0% RH to 80.0% RH", "value": "slightly hygroscopic"}, {"measurement": "Vapor sorption", "setting": "accelerated test condition, 70% humidity", "value": "about 1.954%"}, {"measurement": "Vapor sorption", "setting": "extreme condition, 90% humidity", "value": "about 2.534%"}, {"measurement": "Vapor sorption", "setting": "normal storage condition, 60% humidity/25° C.", "value": "about 1.755%"}]}]}
